Data from patent US12059400B2, “Medical compound” (VERA SALUS RICERCA S.R.L., priority 2017, dated 2024).
pIC50: −log10 of the molar value.

How the values were obtained:
melanoma, A375 = test: Apoptosis, acridine orange/ethidium bromide method; format: cell-based, human; conditions: 2 hrs; Compound 2 40 μM, 5 40 μM, 4 40 μM, 3 60 μM, 1 80 μM; FIG. 18
Source text: Tumour cell apoptosis was quantified by the acridine orange/ethidium bromide (AO/EB) method and by using a fluorescence microscope and image-J. In short, after treatment with the test compounds (2 hrs), the tumour cells were placed in contact with an AO/EB solution (in sterile H2O) and photographed with a fluorescence microscope (Leica) by using the ≥20× objective (so as to distinguish the morphology of cell nuclei). In this way, the living cells are labelled with AO and emit fluorescence in the green channel, while the necrotic cells, which have undergone the rupture of the plasma membrane, are permeable to EB and emit fluorescence in the red channel. In contrast, apoptotic cells are permeable to both AO and EB, and as a consequence of the colocalization of the two fluorescences appear yellow-orange when the two individual microscope-acquired fluorescences are superimposed by using the editing program Image J. The objective quantification of the colocalization areas (apoptotic cells) and the non-colocalization areas (living or necrotic cells) was carried out on a number of cells ≥300/condition through the use of Apoptosis Correlator (ImageJ plug-in) and shown as the percentage of living (green), necrotic (red) or apoptotic (yellow-orange) tumour cells. Data analysis was carried out by using GraphPad Prism 6 for graphical representation and statistical processing (2-way ANOVA test).

[1] = test system: human skin fibroblasts (WS1); test: Cell proliferation of normal cells, crystal violet method; format: cell-based; conditions: at the indicated concentrations (not given); FIG. 17
Protocol: The compound according to the invention, and in particular the synthetic quercetin derivatives described and illustrated herein were investigated in vitro by using human tumour cells and assessing their impact on the tumour proliferative capacity, with regard to the tumours described above. In particular, the following human tumour cell lines were assessed experimentally: 1) HCT116, colon adenocarcinoma cells; 2) H1299, lung adenocarcinoma cells; 3) A375, melanoma cells, and 4) A431, squamous skin cell carcinoma; 5) 786-0, renal carcinoma cells; 6) PC3, prostate carcinoma cells; 7) BT549, mammary carcinoma cells; 8) CAL27, tongue carcinoma cells (belonging to the head-and-neck carcinomas); 9) HepG2, hepatocellular carcinoma cells; 10) PANC-1, pancreas carcinoma cells; 11) T24, bladder carcinoma cells; 12) OVCAR-3, ovarian carcinoma cells. In addition, a normal human cell line, WS1 (skin fibroblasts) was also treated with the novel synthetic compounds. Cell proliferation was quantified by the crystal violet method with a spectrophotometer. In short, after acquiring serial images (0, 24 and 48 hrs) with the EVOS XL Cell Imaging System microscope (Thermo Fisher Scientific), the cells imaged at 48 hrs were fixed with paraformaldehyde (4%) and stained with Crystal Violet (1%). Then, the specific absorbance (λ=590 nm) at 48 hrs was measured with a spectrophotometer (Infinite®200 PRO, Tecan). Data analysis was carried out by using ad-hoc Excel files for graphical representation and statistical processing (t-test). […] This tool allows cell growth to be monitored from electrical impedance-derived quantitative values (the so-called Cell Index) measured by tiny electrodes located at the base of the culture wells. Proliferation is monitored for several days (5-7) by setting a Cell Index per minute measure on the instrument. The data are analysed by processing various parameters calculated by the dedicated software, such as the cell duplication time, the slope and the Max Cell Index.

SCC cells (A431) = test: Cell proliferation, crystal violet method; format: cell-based, human; conditions: for A431 cell growth vs vehicle control: 90 μM, FIG. 2a, 2b; for pIC50: crystal violet, spectrophotometer, read-out: IC50 anti-proliferative effect, SCC (A431)
Protocol: The compound according to the invention, and in particular the synthetic quercetin derivatives described and illustrated herein were investigated in vitro by using human tumour cells and assessing their impact on the tumour proliferative capacity, with regard to the tumours described above. In particular, the following human tumour cell lines were assessed experimentally: 1) HCT116, colon adenocarcinoma cells; 2) H1299, lung adenocarcinoma cells; 3) A375, melanoma cells, and 4) A431, squamous skin cell carcinoma; 5) 786-0, renal carcinoma cells; 6) PC3, prostate carcinoma cells; 7) BT549, mammary carcinoma cells; 8) CAL27, tongue carcinoma cells (belonging to the head-and-neck carcinomas); 9) HepG2, hepatocellular carcinoma cells; 10) PANC-1, pancreas carcinoma cells; 11) T24, bladder carcinoma cells; 12) OVCAR-3, ovarian carcinoma cells. In addition, a normal human cell line, WS1 (skin fibroblasts) was also treated with the novel synthetic compounds. Cell proliferation was quantified by the crystal violet method with a spectrophotometer. In short, after acquiring serial images (0, 24 and 48 hrs) with the EVOS XL Cell Imaging System microscope (Thermo Fisher Scientific), the cells imaged at 48 hrs were fixed with paraformaldehyde (4%) and stained with Crystal Violet (1%). Then, the specific absorbance (λ=590 nm) at 48 hrs was measured with a spectrophotometer (Infinite®200 PRO, Tecan). Data analysis was carried out by using ad-hoc Excel files for graphical representation and statistical processing (t-test). Moreover, the results obtained with Crystal Violet were confirmed by using another cell proliferation assessment method based on the real time cellular analyzer XCELLigence RTCA DP (ACEA Biosciences, Inc.). This tool allows cell growth to be monitored from electrical impedance-derived quantitative values (the so-called Cell Index) measured by tiny electrodes located at the base of the culture wells. Proliferation is monitored for several days (5-7) by setting a Cell Index per minute measure on the instrument. The data are analysed by processing various parameters calculated by the dedicated software, such as the cell duplication time, the slope and the Max Cell Index. […] Cell proliferation was quantitated spectrophotometrically by the crystal violet method.

| Substance | induction of apoptosis in A375 (melanoma, A375) | proliferation of normal human skin fibroblasts (WS1) vs vehicle control [1] | A431 cell growth vs vehicle control (SCC cells (A431)) | pIC50 (SCC cells (A431)) |
| --- | --- | --- | --- | --- |
| 2-(3,4-Dihydroxyphenyl)-3-hexadecyloxy-5,7-dihydroxy-4H-chromen-4-one [Compound 3] | induced apoptosis | – | – | – |
| 2-(3,4-Dihydroxyphenyl)-3-ethoxy-5,7-dihydroxy-4H-chromen-4-one [Compound 1] | induced apoptosis | – | – | – |
| 2-(3,4-Dihydroxyphenyl)-3-hexyloxy-5,7-dihydroxy-4H-chromen-4-one [Compound 2] | induced apoptosis | do not disrupt | significantly inhibit | 4.39 |
| 2-(3,4-dihydroxyphenyl)-5,7-dihydroxy-4-oxo-4H-chromen-3-yl acetate [Compound 4] | induced apoptosis | – | significantly inhibit | 4.51 |
| 2-(3,4-dihydroxyphenyl)-5,7-dihydroxy-4-oxo-4H-chromen-3-yl palmitate [Compound 5] | induced apoptosis | – | significantly inhibit | 4.59 |
